Measurements taken from patent US20240390251A1, “SKIN CARE COMPOSITION AND USE THEREOF, AND SKIN CARE COMPOSITION RAW MATERIAL” (YAMASA CORPORATION, priority 2021, published 2024).

Tests used:
[1] = tested on: inflammatory cytokine production; assay: Anti-inflammatory evaluation of purine nucleotides in a similar experimental system; type: cell-based, human; settings: similar experimental system to Example 1
Experimental: (§1) Normal human keratinocytes (NHEK; manufactured by Kurabo Industries, Ltd.) were seeded in a 96-well plate at a density of 2.5×10^4 cells/well and cultured at 37° C. for 24 hours. The medium was replaced with 100 μL of sample-containing medium (HuMedia-KG2; manufactured by Kurabo Industries, Ltd.) and cultured for 24 hours. After removing the sample-containing medium, the plate was washed with 100 μL of Hanks balanced salt solution (HBSS (−)) and irradiated with 20 mJ/cm^2 using a UVB lamp (TL20W/12RS; manufactured by PHILIPS). After washing with HBSS (−), the medium was replaced with 100 μL of fresh medium and cultured for 24 hours. After culturing, the culture supernatant was collected. The sample solutions used were 0.8 (mg/mL) of UMP,2Na 0.4, 0.8 (mg/mL) of CMP,2Na 0.4, 0.8 (mg/mL) of U:C=1:1 (mass ratio 1:1 mixture of UMP,2Na and CMP,2Na) 0.4, 0.8 (mg/mL) of U:C=4:1 (mass ratio 4:1 mixture of UMP,2Na and CMP,2Na) 0.4, and 0.8 (mg/mL) of U:C=1:4 (mass ratio 1:4 mixture of UMP,2Na and CMP,2Na) 0.4.
The culture supernatant of human keratinocytes was collected, and amounts of IL-1α, IL-6, and IL-8 were quantified by ELISA.

IL-6 [2] = assay: Anti-inflammatory evaluation using UVB-irradiated normal human keratinocytes, IL-6 by ELISA; type: cell-based; settings: NHEK, FIG. 2; for concentration dependence of the inhibitory effect on IL-6 / amount of IL-6 produced: UVB 20 mJ/cm^2, sample 0.4 and 0.8 mg/mL; for amount of IL-6 produced: culture supernatant
Experimental: as §1, with “The effects of using various nucleotides on photoaging of the skin were evaluated using normal human keratinocytes. The effects of various nucleotides on inflammatory cytokines induced by UV irradiation of normal human keratinocytes were evaluated. Known inflammatory cytokines IL-1α, IL-6, and IL-8 were used as the inflammatory cytokines to be evaluated. Normal” for “Normal”, “(-))” for “(−))”, “(T[…]/12RS;” for “(TL20W/12RS;”, “(-),” for “(−),”, “0.4. The culture supernatant of human keratinocytes was collected, and amounts of IL-1α, IL-6, and IL-8 were quantified by ELISA.” for “0.4.”

IL-1α [3] = assay: Anti-inflammatory evaluation using UVB-irradiated normal human keratinocytes, IL-1α by ELISA; type: cell-based; settings: NHEK, UVB 20 mJ/cm^2, sample 0.4 and 0.8 mg/mL, FIG. 1; for amount of IL-1α produced: culture supernatant
Experimental: as §1, with “The effects of using various nucleotides on photoaging of the skin were evaluated using normal human keratinocytes. The effects of various nucleotides on inflammatory cytokines induced by UV irradiation of normal human keratinocytes were evaluated. Known inflammatory cytokines IL-1α, IL-6, and IL-8 were used as the inflammatory cytokines to be evaluated. Normal” for “Normal”, “(-))” for “(−))”, “(T[…]/12RS;” for “(TL20W/12RS;”, “(-),” for “(−),”, “0.4. The culture supernatant of human keratinocytes was collected, and amounts of IL-1α, IL-6, and IL-8 were quantified by ELISA.” for “0.4.”

IL-8 [4] = assay: Anti-inflammatory evaluation using UVB-irradiated normal human keratinocytes, IL-8 by ELISA; type: cell-based; settings: NHEK, FIG. 3; for concentration dependence of the inhibitory effect on IL-8 / amount of IL-8 produced: UVB 20 mJ/cm^2, sample 0.4 and 0.8 mg/mL; for amount of IL-8 produced: culture supernatant
Experimental: as §1, with “The effects of using various nucleotides on photoaging of the skin were evaluated using normal human keratinocytes. The effects of various nucleotides on inflammatory cytokines induced by UV irradiation of normal human keratinocytes were evaluated. Known inflammatory cytokines IL-1α, IL-6, and IL-8 were used as the inflammatory cytokines to be evaluated. Normal” for “Normal”, “(-))” for “(−))”, “(T[…]/12RS;” for “(TL20W/12RS;”, “(-),” for “(−),”, “0.4. The culture supernatant of human keratinocytes was collected, and amounts of IL-1α, IL-6, and IL-8 were quantified by ELISA.” for “0.4.”

IL-6 [5] = assay: Anti-inflammatory evaluation using UVB-irradiated three-dimensional cultured human epidermis, IL-6 by ELISA; type: cell-based; settings: UVB 600 mJ/cm^2, tested 0.125-1.0 w/v %, FIG. 5
Experimental: (§2) To reproduce the phenomenon that occurs in actual epidermis, three-dimensional cultured human epidermis was used to evaluate the suppression effect of cytidylic acid on inflammatory cytokines induced by UV irradiation. In addition, to verify the relationship between the amount of cytidylic acid and the suppression effect on inflammatory cytokine production, the effects of varying the amount of cytidylic acid were evaluated.
(§3) Three-dimensional cultured human epidermis (LabCyte EPI MODEL 24; manufactured by J TEC) was set in a 24-well plate to which 500 μL of the attached assay medium was added, and acclimated overnight at 37° C. 50 μL of sample-containing PBS (−) was applied from the stratum corneum side and cultured for 24 hours. After removing the sample-containing PBS (−), the plate was washed with PBS (−) and irradiated with 600 mJ/cm^2 using a UVB lamp (TL20W/12RS; manufactured by PHILIPS). The medium was replaced with a fresh medium, 50 μL of sample-containing PBS (−) was newly applied from the stratum corneum side, and further cultured for 48 hours. After culturing, the culture supernatant was collected. The concentrations of cytidylic acid in the respective samples were 0, 0.125, 0.25, 0.5, and 1.0 (w/v %), respectively. Each inflammatory cytokine contained in the supernatant was quantified by ELISA.

IL-1α [6] = assay: Anti-inflammatory evaluation using UVB-irradiated three-dimensional cultured human epidermis, IL-1α by ELISA; type: cell-based; settings: UVB 600 mJ/cm^2, tested 0.125-1.0 w/v %, FIG. 4
Experimental: as §2, §3

IL-8 [7] = assay: Anti-inflammatory evaluation using UVB-irradiated three-dimensional cultured human epidermis, IL-8 by ELISA; type: cell-based; settings: UVB 600 mJ/cm^2, tested 0.125-1.0 w/v %, FIG. 6
Experimental: as §2, §3

[8] = UVB 20 mJ/cm^2, significant difference between uridylic acid and cytidylic acid

Row | Compound | effect of inhibiting inflammatory cytokine production, compared with cytidylic acid and uridylic acid [1] | concentration dependence of the inhibitory effect on IL-6 (IL-6 [2]) | amount of IL-6 produced (IL-6 [2]) | concentration dependence of the inhibitory effect on IL-1α (IL-1α [3]) | amount of IL-1α produced (IL-1α [3]) | concentration dependence of the inhibitory effect on IL-8 (IL-8 [4]) | amount of IL-8 produced (IL-8 [4]) | effect of inhibiting IL-6 production, compared with uridylic acid (IL-6 [2]; [8]) | concentration at which a significant IL-6 production inhibitory effect was observed (IL-6 [5]) | concentration at which a significant IL-1α production inhibitory effect was observed (IL-1α [6]) | effect of inhibiting IL-8 production, compared with uridylic acid (IL-8 [4]; [8]) | concentration at which a significant IL-8 production inhibitory effect was observed (IL-8 [7])
1 | Nc1nc2c(ncn2[C@@H]2O[C@H](COP(=O)(O)O)[C@@H](O)[C@H]2O)c(=O)[nH]1 [guanylic acid] | only a lower effect of inhibiting inflammatory cytokine production than cytidylic acid and uridylic acid |  |  |  |  |  |  |  |  |  |  | 
2 | O=c1ccn([C@@H]2O[C@H](COP(=O)(O)O)[C@@H](O)[C@H]2O)c(=O)[nH]1 [uridylic acid] |  | increased the inhibitory effect in a concentration-dependent manner | suppressed the amount of IL-6 produced | increased the inhibitory effect in a concentration-dependent manner | suppressed the amount of IL-1α produced | increased the inhibitory effect in a concentration-dependent manner | suppressed the amount of IL-8 produced |  |  |  |  | 
3 | Nc1ccn([C@@H]2O[C@H](COP(=O)(O)O)[C@@H](O)[C@H]2O)c(=O)n1 [cytidylic acid] |  | increased the inhibitory effect in a concentration-dependent manner | suppressed the amount of IL-6 produced | increased the inhibitory effect in a concentration-dependent manner | suppressed the amount of IL-1α produced | increased the inhibitory effect in a concentration-dependent manner | suppressed the amount of IL-8 produced | particularly remarkable effect of inhibiting IL-6 production | ≥ 0.125% | ≥ 0.25% | particularly remarkable effect of inhibiting IL-8 production | ≥ 0.125%
4 | Nc1ncnc2c1ncn2[C@@H]1O[C@H](COP(=O)(O)O)[C@@H](O)[C@H]1O [adenylic acid] | only a lower effect of inhibiting inflammatory cytokine production than cytidylic acid and uridylic acid |  |  |  |  |  |  |  |  |  |  | 
